# From patent US5491135A (priority 1993, dated 1996)
# “And” between values parts separate entries of the source, which are not always exact repeats. Equal values may be shown once. “Also recorded” adds a separate entry of the source. Read-outs that look alike come from different tables or passages of the source.
# Assays:
# clinical HCMV isolate = assay type: cell-based
# HCMV strain AD 169 [1] = assay: Rabbit model of HCMV chorioretinitis (Example 5); assay type: in vivo, pigmented rabbit; conditions: for histology: preliminary
# Method: A total of 32 pigmented rabbits were used in this study. Animals were evaluated by slit lamp and indirect ophthalmoscopy to determine normal ocular morphology and lack of preexisting pathology. Animals were handled as follows:
# [1] On day 0, all rabbits were inoculated by mid-vitreal injection of 10^5 PFU HCMV strain AD 169 in 100 μl.
# [2] Animals were maintained in individual cages and developing chorioretinal HCMV disease was monitored daily. On day 2 PI, HCMV-inoculated animals were divided into 8 groups of 4 rabbits each with matched chorioretinal disease scores. The HCMV-infected rabbits received intravenous therapy as indicated below:
# Group #1--4 animals, intravenous injection of high dose experimental drug (50 mg/kg) daily from day 2 through 10 PI. A total of 9 IV injections.
# Group #3--4 animals, intravenous injection of low dose experimental drug (20 mg/kg) daily from day 2 through 10 PI. A total of 9 IV injections.
# Group #4--4 animals, intravenous injection of high dose experimental drug (50 mg/kg) daily from day 2 through 10 PI (a total of 9 IV injections) plus high dose DHPG 10 mg/kg/day in 2 divided doses from day 2 through 10 PI (a total of 18 IV injections).
# Group #5--4 animals, intravenous injection of high dose experimental drug (50 mg/kg) daily from day 2 through 10 PI (a total of 9 IV injections) plus low dose DHPG 5 mg/kg/day in 2 divided doses from day 2 through 10 PI (a total of 18 IV injections).
# Group #6--4 animals, intravenous injection of low dose experimental drug (20 mg/kg) daily from day 2 through 10 PI (a total of 9 IV injections) plus low dose DHPG 5 mg/kg/day in 2 divided doses from day 2 through 10 PI (a total of 18 IV injections).
# Group #7--4 animals, intravenous injection of DHPG 10 mg/kg/day in 2 divided doses from day 2 through day 10 PI. A total of 18 IV injections.
# Group #8--4 animals, intravenous injection of sterile saline on days 2 through 10 PI.
# [3] All animals received daily indirect ophthalmoscopic examinations to evaluate clinical HCMV disease progression (From days 2 through 10 PI). The indirect ophthalmoscopic examinations were performed independently by two readers who were masked as to the therapy that the rabbits were receiving.
# [4] All animals were sacrificed on day 12 PI. Chorioretina and iris tissues and vitreous samples will be removed and processed for HCMV recovery by cell sonicate assay on Hs68 cell monolayers. Selected ocular and lung tissue samples were processed for histochemistry to evaluate HCMV-induced ocular pathology in treated and non-treated groups.
# The clinical, virus recovery and histological efficacy results for all drug-treated intravenous therapy groups were correlated with each other and with the placebo therapy group.
# HCMV strain AD 169 [2] = assay: Rabbit HCMV ascending dose efficacy and time course recovery (Example 7); conditions: for Vitreo-retinal score: sum of both eyes
# [3] = PALA 50 mg/kg every other day i.v.
# [4] = PALA 20 daily, alone or + DHPG 5 mg/kg i.v.
# [5] = PALA 50 daily, DHPG 10/day, or PALA 50 + DHPG 10 or 5 mg/kg i.v.
# [6] = day 3, PALA 75 mg/kg/d, with or without steroid
# [7] = day 3, PALA 50 or DHPG 10 mg/kg/d
# [8] = day 4, PALA 75 mg/kg/d, with or without steroid
structure (smiles),measurement,setting,value
O=C(O)C[C@H](NC(=O)CP(=O)(O)O)C(=O)O [PALA],reduction of HCMV titer,clinical HCMV isolate,effective in reducing the titer
same,log reduction at 10 µg/mL,"clinical HCMV isolate; Human betaherpesvirus 5, Hs68, read-out: viral yield reduction",2 to 3
same,Cell associated HCMV titer,clinical HCMV isolate; day 0 PI,10^2 PFU/ml
same,Cell free (supernatant) HCMV titer,clinical HCMV isolate; day 0 PI,10^5 PFU/ml
same,Cell associated HCMV titer,clinical HCMV isolate; day 1 PI,10^3 PFU/ml
same,Cell free (supernatant) HCMV titer,clinical HCMV isolate; day 1 PI,10^2 PFU/ml
same,Cell associated HCMV titer,clinical HCMV isolate; day 2 PI,10^2 PFU/ml
same,Cell free (supernatant) HCMV titer,clinical HCMV isolate; day 2 PI,10^1 PFU/ml
same,Cell associated HCMV titer,clinical HCMV isolate; day 3 PI,10^1 PFU/ml
same,Cell free (supernatant) HCMV titer,clinical HCMV isolate; day 3 PI,10^2 PFU/ml
same,Cell associated HCMV titer,clinical HCMV isolate; day 4 PI,10^1 PFU/ml
same,Cell free (supernatant) HCMV titer,clinical HCMV isolate; day 4 PI,10^1 PFU/ml
same,Cell associated HCMV titer,clinical HCMV isolate; day 5 PI,0 PFU/ml
same,Cell free (supernatant) HCMV titer,clinical HCMV isolate; day 5 PI,10^1 PFU/ml
same,Cell associated HCMV titer,clinical HCMV isolate; day 6 PI,10^1 PFU/ml
same,Cell associated HCMV titer,clinical HCMV isolate; day 7 PI,10^1 PFU/ml
same,histology,HCMV strain AD 169 [1]; PALA 20 mg/kg daily i.v.,diffuse disease with moderate to severe chorioretinal disease
same,histology,HCMV strain AD 169 [1]; PALA 50 mg/kg daily i.v.,moderate areas of chorioretinal HCMV disease restricted to the inner retina
same,HCMV recovery day 12 PI,HCMV strain AD 169 [1]; [3],No HCMV was recovered
same,clinical efficacy,HCMV strain AD 169 [1]; [3],marginally effective
same,lung appearance at sacrifice,HCMV strain AD 169 [1]; [3],clear and non congested
same,optic nerve head edema and redness,HCMV strain AD 169 [1]; [3],severe on days 3-4 PI
same,vitreitis severity,HCMV strain AD 169 [1]; [3],moderate to severe levels within 3-4 days post inoculation
same,HCMV recovery day 12 PI,HCMV strain AD 169 [1]; [4],No HCMV was recovered
same,clinical efficacy,HCMV strain AD 169 [1]; [4],not effective
same,HCMV recovery day 12 PI,HCMV strain AD 169 [1]; [5],No HCMV was recovered
same,clinical efficacy,HCMV strain AD 169 [1]; [5],only marginally effective; also recorded: not effective
same,lung appearance at sacrifice,HCMV strain AD 169 [1]; [5],clear and non congested
same,vitreitis severity,HCMV strain AD 169 [1]; [5],moderate levels within 3-4 days post inoculation
same,interstitial pneumonitis,"HCMV strain AD 169 [1]; rabbit, in vivo",prevented interstitial pneumonitis
same,HCMV recovery vs placebo,HCMV strain AD 169 [2]; PALA 75 mg/kg/day,comparable to placebo therapy
same,clinical disease / efficacy,"HCMV strain AD 169 [2]; PALA 75 mg/kg/day i.v., with or without steroid",vitreitis increased through day 6 post inoculation; also recorded: not improved when compared to the 50 mg/kg/day PALA dose or to the 10 mg/kg/day DHPG dose
same,HCMV recovery vs placebo,HCMV strain AD 169 [2]; PALA 100 mg/kg/day,significantly higher than HCMV recovery in placebo treated animals
same,clinical disease / efficacy,HCMV strain AD 169 [2]; PALA 100 mg/kg/day i.v.,"Both the vitreitis and optic nerve head disease severity were increased compared to other single-agent PALA, DHPG and placebo therapies; also recorded: not effective in reducing the clinical disease progression or HCMV recovery"
same,toxicity,HCMV strain AD 169 [2]; PALA 100 mg/kg/day i.v.,toxic to the animals; also recorded: animal died prior
same,clinical disease / efficacy,HCMV strain AD 169 [2]; PALA 50 or DHPG 10 mg/kg/day i.v.,vitreitis increased through day 6 post inoculation; also recorded: optic nerve head pathology peaked on day 4 after inoculation and decreased to low levels
same,"HCMV Recovered, OD",HCMV strain AD 169 [2]; [6],+
same,"HCMV Recovered, OS",HCMV strain AD 169 [2]; [6],+
same,"HCMV Titer, OD",HCMV strain AD 169 [2]; [6],10^5 pfu and 10^4 pfu
same,"HCMV Titer, OS",HCMV strain AD 169 [2]; [6],10^4 pfu
same,HCMV recovery frequency,HCMV strain AD 169 [2]; [6],4/4
same,Optic neuritis score (ONH),HCMV strain AD 169 [2]; [6],2.0
same,Vitreo-retinal score,HCMV strain AD 169 [2]; [6],2.25 and 1.5
same,Average HCMV titer,"HCMV strain AD 169 [2]; day 3, PALA 100 mg/kg/d",10^4 pfu
same,"HCMV Recovered, OD","HCMV strain AD 169 [2]; day 3, PALA 100 mg/kg/d",+
same,"HCMV Recovered, OS","HCMV strain AD 169 [2]; day 3, PALA 100 mg/kg/d",+
same,"HCMV Titer, OD","HCMV strain AD 169 [2]; day 3, PALA 100 mg/kg/d",10^4 pfu
same,"HCMV Titer, OS","HCMV strain AD 169 [2]; day 3, PALA 100 mg/kg/d",10^3 pfu
same,HCMV recovery frequency,"HCMV strain AD 169 [2]; day 3, PALA 100 mg/kg/d",4/4
same,Optic neuritis score (ONH),"HCMV strain AD 169 [2]; day 3, PALA 100 mg/kg/d",2.0 and 3.0
same,Vitreo-retinal score,"HCMV strain AD 169 [2]; day 3, PALA 100 mg/kg/d",1.0 and 0.75
same,"HCMV Recovered, OD",HCMV strain AD 169 [2]; [7],+
same,"HCMV Recovered, OS",HCMV strain AD 169 [2]; [7],+
same,"HCMV Titer, OD",HCMV strain AD 169 [2]; [7],10^3 pfu and 10^4 pfu
same,"HCMV Titer, OS",HCMV strain AD 169 [2]; [7],10^4 pfu and 10^3 pfu
same,HCMV recovery frequency,HCMV strain AD 169 [2]; [7],4/4
same,Optic neuritis score (ONH),HCMV strain AD 169 [2]; [7],2.0
same,Vitreo-retinal score,HCMV strain AD 169 [2]; [7],1.0 and 1.5
same,"HCMV Recovered, OD",HCMV strain AD 169 [2]; [8],+
same,"HCMV Recovered, OS",HCMV strain AD 169 [2]; [8],+ and -
same,"HCMV Titer, OD",HCMV strain AD 169 [2]; [8],10^4 pfu
same,"HCMV Titer, OS",HCMV strain AD 169 [2]; [8],10^3 pfu
same,HCMV recovery frequency,HCMV strain AD 169 [2]; [8],3/4
same,Optic neuritis score (ONH),HCMV strain AD 169 [2]; [8],4.0 and 5.0
same,Vitreo-retinal score,HCMV strain AD 169 [2]; [8],2.75 and 3.5
same,Average HCMV titer,"HCMV strain AD 169 [2]; day 4, PALA 100 mg/kg/d",10^3 pfu
same,"HCMV Recovered, OD","HCMV strain AD 169 [2]; day 4, PALA 100 mg/kg/d",+
